Reference: patent US20250049904A1, “IMMUNOSTIMULATORY COMPOSITIONS” (VICTORIA LINK LIMITED, priority 2021, published 2025)
“Also recorded” adds a separate entry of the source.

Experiments:
Format in all cases: in vivo, C57BL/6 mice
[1] = tested on: tissue-resident memory T cells (TRM cells); test: LPX-mRNA vaccination of mice i.v.; antigen-specific TRM, TEM and TCM cells in liver and spleen by flow cytometry
Method: FIG. 1 provides a graphical representation showing that LPX-mRNA vaccines containing CI058 induce high levels of liver TRM cells. Liposomes were prepared with DOTMA and DOPE lipids and complexed with mRNA encoding chicken ovalbumin (OVA) to give vaccine LPX-mOVA. Additional vaccines were prepared by including either the prototypical NKT cell agonist α-GalCer (LPX-mOVA-α-GalCer) or the derivative CI058, which has BODIPY attached via an —S in the 6 position of the galactose (LPX-mOVA-CI058). Recipient C57BL/6 mice were transferred 50,000 naïve OVA-specific TCR-transgenic CD8+ T cells (OT-I cells) to enhance the precursor frequency of antigen-specific T cells to aid detection of vaccine-induced responses. A day later, groups of mice (n=5-6) were vaccinated intravenously (0.08 nmol) with the different vaccines; a naive mouse was left untreated. After 28 days, mice were killed and liver and spleen collected for analysis of induced T cell response by flow cytometry. Antigen-specific cells were identified using fluorescent MHC/peptide tetramers containing the targeted CD8^+ T cell epitope recognised by OT-I cells, and expression of Ly5.1, a congenic marker expressed by the OT-I mouse strain and not recipient C57BL/6 mice. The antigen-specific cells were further characterised as resident-memory T cells (TRM cells; CD8^+ Ly5.1^+ […] CD62L^low cells), effector memory T cells (TEM cells; CD8^+ Ly5.1^+ CD44^+ CD69^− CD62L^low cells) or central memory cells (TCM cells; CD8^+ Ly5.1^+ CD44^+ CD69^− CD62Lhigh cells). (A) Percentages of TRM, TEM and TCM OT-I cells in each treatment group in liver. Mean±SEM for each T cell subset are shown; statistical analysis relates only to pairwise comparisons of the percentage of TRM cells between the treatment groups. Black bars: TRM cells; white bars: TEM cells; grey bars: TCM cells. *P<0.05, **P<0.01, ***P<0.001, ****P<0.0001. One-way ANOVA. (B) Percentages of RM, TEM and TCM OT-I cells in each treatment group in spleen. (C) Mean number of TRM cells in liver for each treatment group (±SEM); dots represent individual mice. Black bars: TRM cells; white bars: TEM cells; grey bars: TCM cells. *P<0.05, **P<0.01, ***P<0.001, ****P<0.0001. One-way ANOVA.
Dose response of LPX-mOVA-α-GalCer versus LPX-mOVA-CI058 vaccines. Analysis was in C57BL/6 mice, without transfer of OT-I cells, so endogenous T cell responses were monitored on a normal T cell repertoire. Groups of 5 mice were used, and vaccines were administered intravenously. After 28 days, mice were killed and liver tissue collected for analysis of induced T cell response by flow cytometry. Antigen-specific cells were identified using fluorescent MHC/peptide tetramers, and further characterised as resident-memory T cells (TRM CD8^+ CD44^+ CD69^+ CXCR6^+ CD49a^+ CD62L^low cells), effector memory T cells (TEM CD8^+ CD44^+ CD69^− KLRG1^+ CXCR3^+ CD62L^low cells) or central memory cells (TCM CD8^+ CD44^+ CD69^− CD62L^high cells). At the same timer, NKT cells in the liver were also evaluated using fluorescent CD1d/α-GalCer tetramers. These were characterised for expression of different markers of activation, including PD-1 (only the latter is shown here). White circles: LPX-mOVA-α-GalCer; black circles: LPX-mOVA-CI058. (A) Graph showing mean number of TRM cells in liver for each treatment group (±SEM) overdose range. ****P<0.0001. (B) Graph showing mean level of expression of the “invariant” NKT cell-associated TCR for each treatment group (±SEM), defined as level of binding of fluorescent CD1d/α-GalCer tetramers and expressed as mean fluorescence index. ****P<0.0001 (C) Graph showing mean level of expression of PD-1 on NKT cells for each treatment group (±SEM). **P<0.01
To examine whether a prodrug mechanism is involved in enhanced TRM cell induction, LPX-mOVA-CI058 vaccines were compared to vaccines containing different NKT cell agonist prodrugs. […]

NKT cells in the liver = test: NKT cell phenotype in the liver after LPX-mRNA vaccination (CD1d/α-GalCer tetramer binding, PD-1); details: correlates with dose
Method: Dose response of LPX-mOVA-α-GalCer versus LPX-mOVA-CI058 vaccines. Analysis was in C57BL/6 mice, without transfer of OT-I cells, so endogenous T cell responses were monitored on a normal T cell repertoire. Groups of 5 mice were used, and vaccines were administered intravenously. After 28 days, mice were killed and liver tissue collected for analysis of induced T cell response by flow cytometry. […] At the same timer, NKT cells in the liver were also evaluated using fluorescent CD1d/α-GalCer tetramers. […] (B) Graph showing mean level of expression of the “invariant” NKT cell-associated TCR for each treatment group (±SEM), defined as level of binding of fluorescent CD1d/α-GalCer tetramers and expressed as mean fluorescence index. ****P<0.0001 (C) Graph showing mean level of expression of PD-1 on NKT cells for each treatment group (±SEM). **P<0.01
Lymphocytes were stained with monoclonal antibodies for: CD8a (53-6.7), Ly5.1 (A20), CD44 (IM7), CXCR6 (SA051D1), CX3CR1 (SA011F11), from BioLegend (Australian Biosearch, Karrinyup, WA. Australia), and CD62L (MEL-14) and CD69 (H1.2F3), from eBioscience (Jomar Life Research, Scoresby, VIC, Australia). […] Single-color positive control samples were used to adjust compensation and cells were analyzed by flow cytometry on a LSR Fortessa (BD Biosciences), or LSRII SORP using Flowjo software (Tree Star Inc.).

[2] = tested on: tissue-resident memory T cells (TRM cells); test: LPX-mRNA vaccination of mice i.v.; antigen-specific TRM, TEM and TCM cells in liver and spleen by flow cytometry; remark: listed apart in the source

CCCCCCCCCCCCCCCCCCCCCCCCCC(=O)N[C@@H](CO[C@H]1O[C@H](CSCC(=O)Nc2ccc(C3=C4C(C)=CC(C)=[N+]4[B-](F)(F)n4c(C)cc(C)c43)cc2)[C@H](O)[C@H](O)[C@H]1O)[C@H](O)[C@H](O)CCCCCCCCCCCCCC [CI058, (2S,3S,4R)-1-(6-Deoxy-6-((2-((4-(5,5-difluoro-1,3,7,9-tetramethyl-5H-4λ4,5λ4-dipyrrolo[1,2-c:2′,1′-f][1,3,2]diazaborinin-10-yl)phenyl)amino)-2-oxoethyl)thio)-α-D-galactopyranosyloxy)-2-hexacosanoylamino-3,4-octadecandiol]
overall level of T cell accumulation in liver ([1]; LPX vaccines with vs without CI058): higher overall levels of T cell accumulation in liver | accumulation (population size) of TRM cells in liver ([1]; LPX-mOVA vaccines i.v., 28-30 days, compared to vaccines with α-GalCer or without agonist): significantly larger populations of TRM cells in the liver tissue; also recorded: significantly enhanced populations of liver TRM cells; also recorded: also enhanced | proportion of TRM cells among antigen-specific T cells in liver and spleen ([1]; LPX-mOVA vaccines i.v., OT-I cell transfer, 28 days after vaccination): enhanced in both tissues, although is consistently more pronounced in liver; also recorded: significantly biased towards TRM cells | peak level of liver TRM cells in dose response ([1]; LPX-mOVA-CI058 vs LPX-mOVA-α-GalCer, no OT-I transfer, day 28): significantly higher than achieved with vaccines with α-GalCer | lower dose giving parity in liver TRM cell levels with α-GalCer vaccine ([1]; dose response, LPX-mOVA-CI058 vs LPX-mOVA-α-GalCer, no OT-I transfer, day 28): 10 fold | liver TRM cell induction, vaccine encoding malaria antigen RPL6 ([1]; endogenous T cell response, no T cell transfer, 30 days): enhancing liver TRM cell induction | expression of NKT cell-associated invariant TCR in liver (NKT cells in the liver; CD1d/α-GalCer tetramers): significantly reduced expression | expression of PD-1 on liver NKT cells (NKT cells in the liver): significantly increased expression | overall TRM cell accumulation in the liver ([2]; agonist in LPX-mOVA vaccine, OT-I transfer, liver 30 days later): significantly better at inducing accumulation of TRM cells | proportion of liver TRM among all vaccine-induced antigen-specific T cells (TRM cell-inducing capability) ([2]; agonist in LPX-mOVA vaccine, OT-I transfer, liver 30 days later, relative to α-GalCer vaccine): superior liver TRM cell-inducing agonist | proportion of antigen-specific TRM cells, liver vs spleen ([2]; malaria model vaccination, LPX-mOVA with CI058, 30 days): significant changes in proportion of antigen-specific TRM cells, which is more pronounced in liver compared to spleen
